This experiment deals with mature cyclic rats. As to the kind of experiment: Ovulation inhibition in rat (in vivo progestagenic activity). As to conditions: 96 h, minimal active dose: level at which average number of ova is reduced by 60% relative to placebo, oral administration for 1 complete cycle (4 days), read-out: MAD. The procedure: Ovulation inhibition after oral administration of the compounds of the invention was studied in mature cyclic rats. Animals were treated with test compound (oral administration) for 1 complete cycle (4 days, from oestrus to pro-oestrus) and the number of ova in the oviduct was microscopically assessed at autopsy in the morning of the next (expected) oestrus. The average number of ova per rat was calculated; the minimal active dose (MAD) is defined as the level at which the average number of ova is reduced by 60% relative to placebo-treated animals.

For the compound `N#Cc1cc2c(cc1F)Oc1ccccc1[C@@H]1[C@@H](NC(=O)C(F)(F)F)CCCN21` (single isomer, unassigned) [Example 2, (-)-(cis)-N-(7-cyano-8-fluoro-1,3,4,14b-tetrahydro-2H-dibenzo[b,f]pyrido[1,2-d] [1,4]oxazepin-1-yl)-2,2,2-trifluoroacetamide], the minimal effective dose was found to be 0.014 mg/kg.
As for `CC(=O)N[C@H]1CCCN2c3c(cc(F)c(C#N)c3Cl)Oc3cccc(F)c3[C@H]12` (single isomer, unassigned) [Example 6, (-)-(cis)-N-(6-chloro-7-cyano-8,14-difluoro-1,3,4,14b-tetrahydro-2H-dibenzo[b,f]pyrido[1,2-d][1,4]oxazepin-1-yl)acetamide], the minimal effective dose is below 0.02 mg/kg.
The result for `N#Cc1c(F)cc2c(c1Cl)N1CCC[C@H](NC(=O)C(F)(F)F)[C@H]1c1cccc(F)c1O2` (single isomer, unassigned) [Example 7, (-)-(cis)-N-(6-chIoro-7-cyano-8,11-difluoro-1,3,4,14b-tetrahydro-2H-dibenzo[b,f]pyrido[1,2-d][1,4]oxazepin-1-yl)-2,2,2-trifluoroacetamide] reads 0.025 mg/kg; that for `C=Cc1cccc2c1N1CCC[C@H](NC(=O)C(F)(F)F)[C@H]1c1ccccc1O2` (single isomer, unassigned) [eutomer of example 54 of WO03/084963, reference compound], above 4 mg/kg; that for `N#Cc1c(F)cc2c(c1Cl)N1CCC[C@@H](NC(=O)C(F)(F)F)[C@@H]1c1ccccc1O2` [Example 3, (-)-(cis)-N-[6-chloro-7-cyano-8-fluoro-1,3,4,14b-tetrahydro-2H-dibenzo[b,f]pyrido[1,2-d][1,4]oxazepin-1-yl]-2,2,2-trifluoroacetamide], 0.08 mg/kg.
Consider `N#Cc1c(F)cc2c(c1C#N)N1CCC[C@@H](NC(=O)C(F)(F)F)[C@@H]1c1ccccc1O2` [Example 4, (-)-(cis)-N-(6,7-dicyano-8-fluoro-1,3,4,14b-tetrahydro-2H-dibenzo[b,f]pyrido [1,2-d][1,4]oxazepin-1-yl)-2,2,2-trifluoroacetamide], for which the minimal effective dose was determined as 0.02 mg/kg.
For the compound `N#Cc1c(F)cc2c(c1Cl)N1CCC[C@@H](NC(=O)C(F)(F)F)[C@@H]1c1ccc(F)cc1O2` [Example 5, (-)-(cis)-N-(6-chloro-7-cyano-8,12-difluoro-1,3,4,14b-tetrahydro-2H-dibenzo[b,f]pyrido[1,2-d][1,4]oxazepin-1-yl)-2,2,2-trifluoroacetamide], the minimal effective dose was at most 0.025 mg/kg.
For `N#Cc1cc2c(cc1F)Oc1cccc(F)c1[C@H]1[C@H](NC(=O)C(F)(F)F)CCCN21` [Example 8, (-)-(cis)-N-(7-cyano-8,14-difluoro-1,3,4,14b-tetrahydro-2H-dibenzo[b,f]pyrido [1,2-d][1,4]oxazepin-1-yl)-2,2,2-trifluoroacetamide], the minimal effective dose was found to be 0.01 mg/kg.
Turning to `N#Cc1c(F)cc2c(c1Cl)N1CCC[C@@H](NC(=O)C(F)(F)F)[C@@H]1c1c(F)cccc1O2` [Example 9, (-)-(cis)-N-(6-chloro-7-cyano-8,14-difluoro-1,3,4,14b-tetrahydro-2H-dibenzo [b,f]pyrido[1,2-d][1,4]oxazepin-1-yl)-2,2,2-trifluoroacetamide], the minimal effective dose is below 0.02 mg/kg.

Source of the values: patent EP2066677B1, “PYRIDOOXAZEPINE PROGESTERON RECEPTOR MODULATORS” (N.V. Organon, priority 2006, dated 2008).
